Experimental data taken from EPA's CvTdb concentration-time database.

Tests used:
Rat [1] = test: concentration in plasma after dosing; settings: dosed: Fluorotelomer alcohol 8+2, 40 mg/kg, iv, Female, Harlan Sprague-Dawley
Rat [2] = test: concentration in brain after dosing; settings: 1848 h; dosed: Perfluorodecanoic acid; 10 mg/kg; oral; Male; Harlan Sprague Dawley
Rat [3] = test: concentration in kidney after dosing; settings: 3360 h; dosed: Perfluorodecanoic acid; 10 mg/kg; oral; Female; Harlan Sprague Dawley
Rat [4] = test: concentration in kidney after dosing; settings: 3360 h; dosed: Perfluorodecanoic acid; 10 mg/kg; oral; Male; Harlan Sprague Dawley
Rat [5] = test: concentration in heart after dosing; settings: 10 min; dosed: Bis 2-Chloroethoxy Methane; 20 mg/kg; iv; Female; F344
Rat [6] = test: concentration in thymus after dosing; settings: 7 h; dosed: Bis 2-Chloroethoxy Methane; 20 mg/kg; iv; Female; F344
Rat [7] = test: concentration in thymus after dosing; settings: 6 h; dosed: Bis 2-Chloroethoxy Methane; 20 mg/kg; iv; Male; F344
Rat [8] = test: concentration in heart after dosing; settings: 5 h; dosed: Bis 2-Chloroethoxy Methane; 20 mg/kg; iv; Male; F344
Rat [9] = test: concentration in thymus after dosing; settings: 40 min; dosed: Bis 2-Chloroethoxy Methane; 20 mg/kg; iv; Female; F344
Rat [10] = test: concentration in liver after dosing; settings: 1 h; dosed: Bis 2-Chloroethoxy Methane; 20 mg/kg; iv; Male; F344
Rat [11] = test: concentration in plasma after dosing; settings: dosed: dichloroacetic acid, 100 mg/kg, oral, Male, F344
Rat [12] = test: concentration in thymus after dosing; settings: 20 min; dosed: Thiodiglycolic Acid; 20 mg/kg; iv; Female; F344
Rat [13] = test: concentration in heart after dosing; settings: 2 h; dosed: Thiodiglycolic Acid; 20 mg/kg; iv; Male; Harlan Sprague Dawley
Rat [14] = test: concentration in thymus after dosing; settings: 1 h; dosed: Thiodiglycolic Acid; 20 mg/kg; iv; Female; Harlan Sprague Dawley
Rat [15] = test: concentration in thymus after dosing; settings: 10 min; dosed: Thiodiglycolic Acid; 20 mg/kg; iv; Male; F344
Rat [16] = test: concentration in plasma after dosing; settings: 2 h; dosed: Di-n-butyl phthalate; 20 mg/kg; iv; Male; Sprague-Dawley
Rat [17] = test: concentration in plasma after dosing; settings: 15 h; dosed: Di-n-butyl phthalate; 50 mg/kg; oral; Male; Sprague-Dawley
Rat [18] = test: concentration in plasma after dosing; settings: 3 h; dosed: Di-n-butyl phthalate; 100 mg/kg; oral; Male; Sprague-Dawley
rat [19] = test: concentration in plasma after dosing; settings: dosed: trichloroethylene, 600.4 ppm, inhalation, duration: 4 hr, female, Fischer-344

## OCCC(F)(F)C(F)(F)C(F)(F)C(F)(F)C(F)(F)C(F)(F)C(F)(F)C(F)(F)F [Fluorotelomer alcohol 8+2]
Rat [1]; 0.75 h
  concentration in plasma: 2220 ng/mL
Rat [1]; 12 h
  concentration in plasma: 28.7 ng/mL

## O=C(O)C(F)(F)C(F)(F)C(F)(F)C(F)(F)C(F)(F)C(F)(F)C(F)(F)C(F)(F)C(F)(F)F [Perfluorodecanoic acid]
Rat [2]
  concentration in brain: 531 ng/g
Rat [3]
  concentration in kidney: 2580 ng/g
Rat [4]
  concentration in kidney: 1240 ng/g

## ClCCOCOCCCl [Bis 2-Chloroethoxy Methane]
Rat [5]
  concentration in heart: 11400 ng/g
Rat [6]
  concentration in thymus: 17.7 ng/g
Rat [7]
  concentration in thymus: 19.5 ng/g
Rat [8]
  concentration in heart: 54.3 ng/g
Rat [9]
  concentration in thymus: 4150 ng/g
Rat [10]
  concentration in liver: 2070 ng/g

## O=C(O)C(Cl)Cl [dichloroacetic acid]
Rat [11]; 5 min
  concentration in plasma: 7120 ng/mL
Rat [11]; 2 h
  concentration in plasma: 41300 ng/mL

## O=C(O)CSCC(=O)O [Thiodiglycolic Acid]
Rat [12]
  concentration in thymus: 4680 ng/g
Rat [13]
  concentration in heart: 1310 ng/g
Rat [14]
  concentration in thymus: 2580 ng/g
Rat [15]
  concentration in thymus: 6960 ng/g

## CCCCOC(=O)c1ccccc1C(=O)O [Mono-n-butyl phthalate]
Rat [16]
  concentration in plasma: 1670 ng/mL
Rat [17]
  concentration in plasma: 530 ng/mL
Rat [18]
  concentration in plasma: 6970 ng/mL

## O=C(O)C(Cl)(Cl)Cl [trichloroacetic acid]
Rat [19]; 0.1633 h
  concentration in plasma: 10200 ng/mL
Rat [19]; 0.5306 h
  concentration in plasma: 11400 ng/mL
Rat [19]; 0.898 h
  concentration in plasma: 11800 ng/mL
Rat [19]; 1.633 h
  concentration in plasma: 13400 ng/mL
Rat [19]; 2.122 h
  concentration in plasma: 15800 ng/mL
Rat [19]; 5.061 h
  concentration in plasma: 18300 ng/mL
Rat [19]; 21.1 h
  concentration in plasma: 5730 ng/mL
Rat [19]; 29.06 h
  concentration in plasma: 2750 ng/mL
Rat [19]; 46.08 h
  concentration in plasma: 1150 ng/mL
